Some results are limits rather than exact numbers.

The target in assay [1] is T1, Opioid receptor (Rattus norvegicus, UniProt P33533+P34975+P33535). In words: In vitro opioid receptor binding competition against 1 nM [3H]- Naltrexone in the presence of 100 mM NaCl. It is filed as protein assay.
In assay [2] the target is T1, Opioid receptor. In words: In vitro opioid receptor binding competition against 1 nM [3H]- Naltrexone in the absence of NaCl. It is filed as protein assay.
The target of assay [3] is Opioid receptor (Rattus norvegicus) (UniProt P33533+P34975+P33535). Description: Ratio of IC50 value in presence of NaCl to that of NaCl absence against opioid receptor. It is filed as protein assay.
Assay [4] is described as follows: Activity against specific binding of [3H]-naltrxone at dose 200 nM & at 25 degree C in the presence of Na+ ion (unwashed ).
Assay [5] is described as follows: Activity against specific binding of [3H]naltrxone at dose 75 nM & at 37 degree C in the absence of Na+ ion (washed).
A short description of assay [6]: Activity against specific binding of [3H]naltrxone at dose 200 nM & at 25 degree C in the absence of Na+ ion (washed).
Assay [7] is described as follows: Activity against specific binding of [3H]naltrxone at dose 200 nM & at 25 degree C in the presence of Na+ ion (washed).
The nature of assay [8]: Activity against specific binding of [3H]naltrxone at dose 200 nM & at 25 degree C in the absence of Na+ ion (unwashed ).
A short description of assay [9]: Activity against specific binding of [3H]naltrxone at dose 75 nM & at 37 degree C in the absence of Na+ ion (unwashed ).
Assay [10] can be described thus: Activity against specific binding of [3H]naltrxone at dose 500 nM & at 37 degree C in the presence of Na+ ion(washed).
The nature of assay [11]: Activity against specific binding of [3H]naltrxone at dose 500 nM & at 37 degree C in the presence of Na+ ion (unwashed ).

By IC50 is commonly meant the concentration that inhibits the measured activity by half. Take `C=C1CC2(CCC3(O)[C@H]4Cc5ccc(O)c6c5[C@@]3(CCN4CC3CC3)C2O6)OC1=O` (stereo in doubt; 6a) [listing 1 of 2 here]: the IC50 in assay [1] turned out to be 15 nM; in assay [2], 12.5 nM.

Regarding `Oc1ccc2c3c1OC1C4(CCC5(O)[C@@H](C2)N(CC2CC2)CC[C@]315)CO4` (stereo in doubt; 13a) [listing 1 of 2 here], the IC50 in assay [1] is recorded as 3.4 nM; in [2], 5.1 nM.

For `CCOC(=O)[C@@H]1OC12CCC1(O)[C@H]3Cc4ccc(O)c5c4[C@@]1(CCN3CC1CC1)C2O5` (stereo partly specified), the Ratio in [3] stood at 1. This molecule gave a concentration for half-maximal inhibition (IC50) in assay [2] of 6 nM.

In the case of `CC1CC2(CCC3(O)[C@H]4Cc5ccc(O)c6c5[C@@]3(CCN4CC3CC3)C2O6)OC1=O` (stereo partly specified), the IC50 in assay [1] was 6 nM; in [2], 10 nM. Also, the Ratio in assay [3] is 0.6.

As for `C=C1CC2(CCC3(O)[C@H]4Cc5ccc(O)c6c5[C@@]3(CCN4CC3CC3)C2O6)OC1=O` (stereo in doubt; 5a) [listing 1 of 2 here], the values for the IC50 in [1] and in [2] were 2 nM and 5 nM, respectively.

For `CC1CC2(CCC3(O)C4Cc5ccc(O)c6c5[C@@]3(CCN4C)C2O6)OC1=O` (stereo partly specified), the IC50 in [1] amounted to 500 nM; in [2], 30 nM. In addition, the Ratio in assay [3] was found to be 16.7.

Turning to `CCOC(=O)[C@@H]1OC12CCC1(O)C3Cc4ccc(O)c5c4[C@@]1(CCN3C)C2O5` (stereo partly specified), the 50% inhibitory concentration (IC50) in [1] was 200 nM; in assay [2] it was 15 nM. The Ratio in [3] was found to be 13.3.

Turning to `CN1CC[C@]23c4c5ccc(O)c4OC2C2(CCC3(O)C1C5)CO2` (stereo partly specified), the IC50 in assay [1] is given as 60 nM; in assay [2], 8 nM. The Ratio in assay [3] amounted to 7.5.

Consider `Oc1ccc2c3c1OC1C4(CCC5(O)[C@@H](C2)N(CC2CC2)CC[C@]315)CO4` (stereo in doubt; 12a) [listing 1 of 2 here], for which the 50% inhibitory concentration (IC50) is 2 nM in assay [1] and 4 nM in [2].

As to `C=C1CC2(CCC3(O)[C@H]4Cc5ccc(O)c6c5[C@@]3(CCN4C)C2O6)OC1=O` (stereo in doubt; 5b) [listing 1 of 2 here], the Control came out at 43% in assay [4]; 97% in assay [5]; 79% in [6]; 63% in assay [7]; 35% in [8]; 66% in [9]. The Control in [10] was determined as 56%; in assay [11], 34%. Also, the Ratio in assay [3] amounted to 7.

Regarding `CC1=CC2(CCC3(O)C4Cc5ccc(O)c6c5[C@@]3(CCN4C)C2O6)OC1=O` (stereo partly specified), the results for the IC50 in assay [1] and in [2] were more than 1000 nM and 200 nM, respectively. Moreover, the Ratio in assay [3] is more than 5.

For the molecule `Oc1ccc2c3c1OC1C4(CCC5(O)[C@@H](C2)N(CC2CC2)CC[C@]315)CO4` (stereo in doubt; 12a) [listing 2 of 2 here], the Ratio in [3] is 0.5.

Take `C=C1C(=O)OC2C1CC1(O)[C@H]3Cc4ccc(O)c5c4[C@@]1(CCN3CC1CC1)C2O5` (stereo partly specified): the IC50 in assay [1] worked out at 7 nM; in assay [2], 10 nM. Moreover, in assay [3], the Ratio was found to be 0.7.

On to `C=C1C(=O)OC2=C1CC1(O)[C@H]3Cc4ccc(O)c5c4[C@@]1(CCN3CC1CC1)C2O5` (stereo partly specified), for which the IC50 in assay [1] worked out at 50 nM; in assay [2], 100 nM. In assay [3], the Ratio came to 0.5.

`Oc1ccc2c3c1OC1C4(CCC5(O)[C@@H](C2)N(CC2CC2)CC[C@]315)CO4` (stereo in doubt; 13a) [listing 2 of 2 here]: the Ratio in assay [3] stood at 0.6.

As for `CC1=CC2(CCC3(O)[C@H]4Cc5ccc(O)c6c5[C@@]3(CCN4CC3CC3)C2O6)OC1=O` (stereo partly specified), the IC50 in assay [1] amounted to 70 nM; in assay [2] it was 40 nM. Further, the Ratio in assay [3] was 1.8.

As to `C=C1CC2(CCC3(O)[C@H]4Cc5ccc(O)c6c5[C@@]3(CCN4CC3CC3)C2O6)OC1=O` (stereo in doubt; 5a) [listing 2 of 2 here], the Ratio in [3] worked out at 0.4.

For the molecule `O=C1C=CC2(CCC3(O)[C@H]4Cc5ccc(O)c6c5[C@@]3(CCN4CC3CC3)C2O6)O1` (stereo partly specified), the IC50 in assay [1] and in assay [2] was 10 nM in each case. Besides, the Ratio in [3] came out at 1.

Consider `C=C1CC2(CCC3(O)[C@H]4Cc5ccc(O)c6c5[C@@]3(CCN4C)C2O6)OC1=O` (stereo in doubt; 6b) [listing 1 of 2 here], for which, in [3], the Ratio came out at 7.

Turning to `CCOC(=O)[C@H]1OC12CCC1(O)[C@H]3Cc4ccc(O)c5c4[C@@]1(CCN3CC1CC1)C2O5` (stereo partly specified), the values for the half-inhibitory concentration (IC50) in assay [1] and in assay [2] were 3.5 nM and 2.3 nM, respectively. Besides, the Ratio in [3] stood at 1.5.

Take `C=C1CC2(CCC3(O)[C@H]4Cc5ccc(O)c6c5[C@@]3(CCN4CC3CC3)C2O6)OC1=O` (stereo in doubt; 6a) [listing 2 of 2 here]: in assay [3], the Ratio stood at 1.2.

As to `C=C1CC2(CCC3(O)[C@H]4Cc5ccc(O)c6c5[C@@]3(CCN4C)C2O6)OC1=O` (stereo in doubt; 5b) [listing 2 of 2 here], the half-maximal inhibitory concentration (IC50) is 250 nM in assay [1] and 35 nM in assay [2].

Regarding `CCOC(=O)[C@H]1OC12CCC1(O)C3Cc4ccc(O)c5c4[C@@]1(CCN3C)C2O5` (stereo partly specified), the IC50 in assay [1] turned out to be 1000 nM; in [2] it was 70 nM. Besides, the Ratio in assay [3] came out at 14.2.

For the molecule `C=C1CC2(CCC3(O)[C@H]4Cc5ccc(O)c6c5[C@@]3(CCN4C)C2O6)OC1=O` (stereo in doubt; 6b) [listing 2 of 2 here], the IC50 in assay [1] came out at 880 nM; in [2], 125 nM.
